Measurements as given in patent US20260232767A1, “INTERLEUKIN-23 RECEPTOR ANTAGONIST PEPTIDES FOR USE IN THE TREATMENT OF PSORIASIS” (Janssen Pharmaceutica NV, priority 2023, published 2026).

Tested on: subjects with moderate-to-severe plaque psoriasis
Experiment: PASI response, Example 1 16-week dose-ranging study
Assay type: in vivo, human
Protocol: The Psoriasis Area and Severity Index (PASI) is a system used for assessing and grading the severity of psoriatic lesions and their response to therapy. In the PASI system, the body is divided into four regions: the head, trunk, upper extremities, and lower extremities. Each of these areas is assessed and scored separately for erythema, induration, and scaling, which are each rated on a scale of 0 to 4 and extent of involvement on a scale of 0 to 6. The PASI produces a numeric score (a “PASI score”) that can range from 0 to 72. A higher score indicates more severe disease.
This was a randomized, double-blind, placebo-controlled, dose-ranging, parallel group, multicenter, interventional study in subjects with moderate-to-severe plaque psoriasis. A target of 240 subjects were enrolled in this study with 40 subjects planned per intervention group.
Clinician-reported outcomes including Psoriasis Area and Severity Index (PASI), Body Surface Area (BSA), Investigator's Global Assessment (IGA), Nail Psoriasis Area and Severity Index (NAPSI), Fingernail Physician's Global Assessment (f-PGA), Static Physician's Global Assessment of Genitalia (s-PGA-G), Physician's Global Assessment of Hands and/or Feet (hf-PGA), and Scalp Specific Investigator Global Assessment (ss-IGA) were obtained at Week 0, 8, and 16. PASI and IGA were also obtained at Weeks 1, 2, 4, and 12, and at Week 20, four weeks after the administration of the tablets has stopped.
The primary efficacy endpoint was the proportion of participants achieving a PASI 75 response at Week 16, defined as at least a 75% reduction from baseline in PASI total score.
For the primary analysis, composite strategy (non-responder imputation) was applied to address intercurrent event #1 (Discontinuation of study intervention due to lack of efficacy or due to an AE of worsening of psoriasis) and #2 (initiation of a protocol-prohibited medication or therapy that could improve psoriasis); and treatment policy strategy (observed data) was applied to intercurrent event #3 (Discontinuation of study intervention due to other reasons). Participants with missing data after application of ICEs are also considered as non-responders.
In addition to the response analysis, pairwise comparisons of each treatment group versus the placebo group were performed for the primary endpoint of PASI 75 at Week 16. Pairwise comparisons were not adjusted for multiplicity. The Cochran-Mantel-Haenszel chi-square statistic stratified by baseline weight category (≤90 kg, >90 kg) at a 2-sided significance level of 0.05 was used (Table 2).

[1] = 100 mg BID, Week 16, trough plasma conc Q1 to <Q2
[2] = 100 mg BID, Week 16, trough plasma conc Q2 to <Q3
[3] = 100 mg BID, Week 16, trough plasma conc ≥Q3
[4] = 100 mg QD, Week 16, peak plasma conc. <Q1, N=2
[5] = 100 mg QD, Week 16, peak plasma conc. Q1 to <Q2, N=2
[6] = 100 mg QD, Week 16, peak plasma conc. Q2 to <Q3, N=2
[7] = 100 mg QD, Week 16, peak plasma conc. ≥Q3, N=2
[8] = 100 mg QD, Week 16, trough plasma conc <Q1
[9] = 100 mg QD, Week 16, trough plasma conc Q1 to <Q2
[10] = 100 mg QD, Week 16, trough plasma conc Q2 to <Q3
[11] = 100 mg QD, Week 16, trough plasma conc ≥Q3
[12] = Combined doses, Week 16, peak plasma conc. <Q1, N=10
[13] = Combined doses, Week 16, peak plasma conc. Q1 to <Q2, N=11
[14] = Combined doses, Week 16, peak plasma conc. Q2 to <Q3, N=10
[15] = Combined doses, Week 16, peak plasma conc. ≥Q3, N=11
[16] = Combined doses, Week 16, trough plasma conc <Q1
[17] = Combined doses, Week 16, trough plasma conc Q1 to <Q2

CC(=O)NCCCC[C@@H]1NC(=O)[C@H](Cc2c[nH]c3c(C)cccc23)NC(=O)[C@H]([C@@H](C)O)NC(=O)[C@H](CC(N)=O)NC(=O)[C@@H](NC(C)=O)C(C)(C)SSC(C)(C)[C@@H](C(=O)N[C@@H](Cc2ccc(OCCN)cc2)C(=O)N[C@@H](Cc2ccc3ccccc3c2)C(=O)NC2(C(=O)N[C@@H](CCC(=O)O)C(=O)N[C@@H](CC(N)=O)C(=O)N[C@@H](Cc3cccnc3)C(=O)N(C)CC(N)=O)CCOCC2)NC1=O [IL-23 receptor antagonist peptide, Ac-[Pen]*-N-T-[W(7-Me)]-[Lys(Ac)]-[Pen]*-Phe[4-(2-aminoethoxy)]-[2-Nal]-[THP]-E-N-[3-Pal]-Sarc-NH2 (*[Pen]-[Pen]* formdisulfidebond)]
PASI 100% Improvement, subjects [1]: 2 (40.0%) | PASI ≥75% Improvement, subjects [1]: 4 (80.0%) | PASI ≥90% Improvement, subjects [1]: 3 (60.0%) | PASI 100% Improvement, subjects [2]: 2 (40.0%) | PASI ≥75% Improvement, subjects [2]: 5 (100.0%) | PASI ≥90% Improvement, subjects [2]: 3 (60.0%) | PASI 100% Improvement, subjects [3]: 2 (40.0%) | PASI ≥75% Improvement, subjects [3]: 4 (80.0%) | PASI ≥90% Improvement, subjects [3]: 4 (80.0%) | Subjects achieving PASI 75 (100 mg QD, Week 4): 16.3% | PASI 75 treatment difference vs placebo (100 mg QD, Week 16): 55.8% | PASI 90 treatment difference vs placebo (100 mg QD, Week 16): 44.2% (28.6%, | PASI 100 treatment difference vs placebo (100 mg QD, Week 16): 23.3% (10.7%, | Subjects achieving PASI 90 (100 mg QD, Week 16): 20 (46.5%) | Subjects achieving PASI 100 (100 mg QD, Week 16): 10 (23.3%) | PASI 75, % (100 mg QD, Week 16, N=43): 65.1% | PASI 90, % (100 mg QD, Week 16, N=43): 46.5% | PASI 100, % (100 mg QD, Week 16, N=43): 23.3% | PASI 100% Improvement, n subjects [4]: 0 | PASI ≥75% Improvement, % subjects [4]: (100.0%) | PASI ≥75% Improvement, n subjects [4]: 2 | PASI ≥90% Improvement, % subjects [4]: (50.0%) | PASI ≥90% Improvement, n subjects [4]: 1 | PASI 100% Improvement, % subjects [5]: (50.0%) | PASI 100% Improvement, n subjects [5]: 1 | PASI ≥75% Improvement, % subjects [5]: (100.0%) | PASI ≥75% Improvement, n subjects [5]: 2 | PASI ≥90% Improvement, % subjects [5]: (50.0%) | PASI ≥90% Improvement, n subjects [5]: 1 | PASI 100% Improvement, n subjects [6]: 0 | PASI ≥75% Improvement, % subjects [6]: (50.0%) | PASI ≥75% Improvement, n subjects [6]: 1 | PASI ≥90% Improvement, % subjects [6]: (50.0%) | PASI ≥90% Improvement, n subjects [6]: 1 | PASI 100% Improvement, n subjects [7]: 0 | PASI ≥75% Improvement, n subjects [7]: 1 | PASI ≥90% Improvement, % subjects [7]: (50.0%) | PASI ≥90% Improvement, n subjects [7]: 1 | PASI 100% Improvement, subjects [8]: 2 (40.0%) | PASI ≥75% Improvement, subjects [8]: 3 (60.0%) | PASI ≥90% Improvement, subjects [8]: 3 (60.0%) | PASI 100% Improvement, subjects [9]: 0 | PASI ≥75% Improvement, subjects [9]: 3 (60.0%) | PASI ≥90% Improvement, subjects [9]: 3 (60.0%) | PASI 100% Improvement, subjects [10]: 1 (20.0%) | PASI ≥75% Improvement, subjects [10]: 3 (60.0%) | PASI ≥90% Improvement, subjects [10]: 2 (40.0%) | PASI 100% Improvement, subjects [11]: 1 (20.0%) | PASI ≥75% Improvement, subjects [11]: 3 (60.0%) | PASI ≥90% Improvement, subjects [11]: 2 (40.0%) | PASI 100% Improvement, n subjects [12]: 0 | PASI ≥75% Improvement, n subjects [12]: 4 | PASI ≥90% Improvement, % subjects [12]: (30.0%) | PASI ≥90% Improvement, n subjects [12]: 3 | PASI 100% Improvement, % subjects [13]: (18.2%) | PASI 100% Improvement, n subjects [13]: 2 | PASI ≥75% Improvement, n subjects [13]: 10 | PASI ≥90% Improvement, % subjects [13]: (63.6%) | PASI ≥90% Improvement, n subjects [13]: 7 | PASI 100% Improvement, % subjects [14]: (10.0%) | PASI 100% Improvement, n subjects [14]: 1 | PASI ≥75% Improvement, n subjects [14]: 7 | PASI ≥90% Improvement, % subjects [14]: (60.0%) | PASI ≥90% Improvement, n subjects [14]: 6 | PASI 100% Improvement, % subjects [15]: (36.4%) | PASI 100% Improvement, n subjects [15]: 4 | PASI ≥75% Improvement, n subjects [15]: 8 | PASI ≥90% Improvement, % subjects [15]: (63.6%) | PASI ≥90% Improvement, n subjects [15]: 7 | PASI 100% Improvement, subjects [16]: 7 (26.9%) | PASI ≥75% Improvement, subjects [16]: 13 (50.0%) | PASI ≥90% Improvement, subjects [16]: 11 (42.3%) | PASI 100% Improvement, subjects [17]: 4 (15.4%) | PASI ≥75% Improvement, subjects [17]: 12 (46.2%) | PASI ≥90% Improvement, subjects [17]: 7 (26.9%)
